How the values were obtained:
Format in all cases: in vivo
[1] = test system: barnyardgrass (Echinochloa crus-galli); assay: Test A greenhouse herbicide test, pre- and postemergence
Summary of the method: (§1)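 Seeds sown in loam–sand blend got a preemergence directed soil spray of compound in non-phytotoxic solvent with surfactant. Postemergence treatment was given at 2–10 cm, one- to two-leaf stage. After ~10 d in greenhouse, injury was rated visually vs untreated controls, 0 (no effect) to 100 (complete control).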

corn (Zea mays) = assay: as above; details: Postemergence
Summary of the method: as §1

[2] = test system: foxtail, giant (giant foxtail, Setaria faberii); assay: as above
Summary of the method: as §1

kochia (Kochia scoparia) = assay: as above
Summary of the method: as §1

[3] = test system: pigweed (Amaranthus retroflexus); assay: as above
Summary of the method: as §1

[4] = test system: ragweed (common ragweed, Ambrosia elatior); assay: as above
Summary of the method: as §1

[5] = test system: ryegrass, Italian (Italian ryegrass, Lolium multiflorum); assay: as above
Summary of the method: as §1

[6] = test system: wheat (Triticum aestivum); assay: as above; details: Postemergence
Summary of the method: as §1

[7] = test system: blackgrass (Alopecurus myosuroides); assay: Test A greenhouse herbicide test, postemergence
Summary of the method: (§2)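 Plants grown in loam soil/sand blend pots were treated postemergence at 2 to 10 cm height, one- to two-leaf stage, with formulated test chemicals. After approximately 10 d in a greenhouse, injury was rated visually against untreated controls on a 0 to 100 scale (0 no effect, 100 complete control).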

[8] = test system: galium (catchweed bedstraw, Galium aparine); assay: Test A greenhouse herbicide test, postemergence
Summary of the method: as §2

[9] = test system: barnyardgrass (Echinochloa crus-galli); assay: Test B flooded paddy test; details: 250 g ai/ha, Flood; visual rating on scale of 0 to 100 where 0 is no effect and 100 is complete control; 13 to 15 d after treatment
Summary of the method: (§3)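 Plants at the 2-leaf stage were flooded to 3 cm above soil, and test compounds were applied directly into the paddy water, which was held at that depth throughout. After 13 to 15 d in a greenhouse, injury was rated visually against untreated controls on a 0–100 scale (0 no effect, 100 complete control).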

[10] = test system: ducksalad (Heteranthera limosa); assay: Test B flooded paddy test; details: 250 g ai/ha, Flood; visual rating on scale of 0 to 100 where 0 is no effect and 100 is complete control; 13 to 15 d after treatment
Summary of the method: as §3

rice (Oryza sativa) = assay: Test B flooded paddy test; details: 250 g ai/ha, Flood; visual rating on scale of 0 to 100 where 0 is no effect and 100 is complete control; 13 to 15 d after treatment
Summary of the method: as §3

[11] = test system: sedge, umbrella (small-flower umbrella sedge, Cyperus difformis); assay: Test B flooded paddy test; details: 250 g ai/ha, Flood; visual rating on scale of 0 to 100 where 0 is no effect and 100 is complete control; 13 to 15 d after treatment
Summary of the method: as §3

[12] = Postemergence, 125 g ai/ha, 0 to 100 scale where 0 is no effect and 100 is complete control
[13] = Postemergence, 500 g ai/ha, visual rating after approx. 10 d, 0 to 100 scale (0 no effect, 100 complete control)
[14] = Preemergence, 125 g ai/ha, 0 to 100 scale where 0 is no effect and 100 is complete control
[15] = Preemergence, 500 g ai/ha, 0 to 100 scale where 0 is no effect and 100 is complete control
[16] = 125 g ai/ha, 0 to 100 scale where 0 is no effect and 100 is complete control
[17] = 500 g ai/ha, visual rating after approx. 10 d, 0 to 100 scale (0 no effect, 100 complete control)

| SMILES | Plant response rating, Barnyardgrass [1, 12] | Plant response rating, Barnyardgrass [1, 13] | Barnyardgrass plant response rating [1, 14] | Plant response rating, Barnyardgrass [1, 15] | Plant response rating, Corn (corn (Zea mays); [16]) | Plant response rating, Corn (corn (Zea mays); [17]) | Plant response rating, Foxtail, Giant [2, 12] | Plant response rating, Foxtail, Giant [2, 13] | Foxtail, Giant plant response rating [2, 14] | Plant response rating, Foxtail, Giant [2, 15] | Plant response rating, Kochia (kochia (Kochia scoparia); [12]) | Plant response rating, Kochia (kochia (Kochia scoparia); [13]) | Kochia plant response rating (kochia (Kochia scoparia); [14]) | Plant response rating, Kochia (kochia (Kochia scoparia); [15]) | Plant response rating, Pigweed [3, 12] | Plant response rating, Pigweed [3, 13] | Pigweed plant response rating [3, 14] | Plant response rating, Pigweed [3, 15] | Plant response rating, Ragweed [4, 12] | Plant response rating, Ragweed [4, 13] | further results |
| --- | --- | --- | --- | --- | --- | --- | --- | --- | --- | --- | --- | --- | --- | --- | --- | --- | --- | --- | --- | --- | --- |
| COc1nn(C)c(=O)c(-c2c(C)sc3ccc(Cl)cc23)c1OS(C)(=O)=O [Compound 135] | 0 | 0 | 0 | 0 | 0 | 20 | 0 | 0 | 20 | 30 | 0 | 0 | 0 | 0 | 0 | 20 | 30 | 70 | 30 | 60 | Ragweed plant response rating [4, 14]: 30; Plant response rating, Ragweed [4, 15]: 60; Plant response rating, Ryegrass, Italian [5, 12]: 40; Plant response rating, Ryegrass, Italian [5, 13]: 70; Ryegrass, Italian plant response rating [5, 14]: 20; Plant response rating, Ryegrass, Italian [5, 15]: 60; Plant response rating, Wheat [6, 16]: 0; Plant response rating, Wheat [6, 17]: 0; Plant response rating, Blackgrass [7, 16]: 0; Plant response rating, Blackgrass [7, 17]: 30; Plant response rating, Galium [8, 16]: 60; Plant response rating, Galium [8, 17]: 90; Plant response rating, Barnyardgrass [9]: 0; Plant response rating, Ducksalad [10]: 0; Plant response rating, Rice (rice (Oryza sativa)): 0; Plant response rating, Sedge, Umbrella [11]: 0 |
| CCOC(=O)Oc1c(C)nn(C)c(=O)c1-c1c(C(F)(F)F)ccc2ccccc12 [Compound 146] | 0 | 30 | 0 | 50 | 0 | 30 | 10 | 70 | 0 | 50 | 70 | 100 | 20 | 70 | 90 | 90 | 100 | 100 | 90 | 100 | Plant response rating, Ragweed [4, 15]: 80; Plant response rating, Ryegrass, Italian [5, 12]: 70; Plant response rating, Ryegrass, Italian [5, 13]: 100; Plant response rating, Ryegrass, Italian [5, 15]: 80; Plant response rating, Wheat [6, 16]: 0; Plant response rating, Wheat [6, 17]: 70; Plant response rating, Blackgrass [7, 16]: 20; Plant response rating, Blackgrass [7, 17]: 70; Plant response rating, Galium [8, 16]: 80; Plant response rating, Galium [8, 17]: 90; Plant response rating, Barnyardgrass [9]: 0; Plant response rating, Ducksalad [10]: 0; Plant response rating, Rice (rice (Oryza sativa)): 0; Plant response rating, Sedge, Umbrella [11]: 0 |
| CCC(=O)Oc1c(C)nn(C)c(=O)c1-c1c(C(F)(F)F)ccc2ccccc12 [Compound 147] | 10 | 40 | 30 | 60 | 0 | 0 | 30 | 80 | 10 | 40 | 80 | 100 | 50 | 80 | 90 | 90 | 90 | 100 | 90 | 90 | Plant response rating, Ragweed [4, 15]: 90; Plant response rating, Ryegrass, Italian [5, 12]: 90; Plant response rating, Ryegrass, Italian [5, 13]: 100; Plant response rating, Ryegrass, Italian [5, 15]: 100; Plant response rating, Wheat [6, 16]: 20; Plant response rating, Wheat [6, 17]: 80; Plant response rating, Blackgrass [7, 16]: 60; Plant response rating, Blackgrass [7, 17]: 90; Plant response rating, Galium [8, 16]: 90; Plant response rating, Galium [8, 17]: 100; Plant response rating, Barnyardgrass [9]: 0; Plant response rating, Ducksalad [10]: 0; Plant response rating, Rice (rice (Oryza sativa)): 0; Plant response rating, Sedge, Umbrella [11]: 0 |

From patent US10597388B2, “Pyridazinone herbicides” (FMC CORPORATION, priority 2014, dated 2020)
